The target of this assay is T1, human Nav1.8/b3 (Homo sapiens, UniProt Q9Y5Y9).
T1 construct: expressed in transfected cells; host or cells: CHO
The assay is described as follows: Compound Profiling Human NaV1.8/β3 Cell Line—SyncroPatch384PE Assay (automated patch clamp, stably transfected CHO cells). The assay is classed as cell-based. Conditions: Nav1.8/b3 CHO cells. Background: The patch-clamp technique gives a direct electrical read-out from membranes.

Where [1] appears, read: P1 (IC50, resting state block), P1 measurement, resting state block, holding potential −120 mV, third set of compounds.
Setting [2] is: P2 (IC50, inactivated state block), P2 measurement, inactivated state block, inactivation step −35 mV 10 sec, third set of compounds.
The mark [3] stands for this setting: P1 (IC50, resting state block), P1 measurement, resting state block, holding potential −120 mV, first set of compounds.
The mark [4] stands for this setting: P2 (IC50, inactivated state block), P2 measurement, inactivated state block, inactivation step −35 mV 10 sec, first set of compounds.
Setting [5] is: P1 measurement, resting state block, holding potential −120 mV, third set of compounds, read-out: P1 (IC50, resting state block).
[6] abbreviates: P2 measurement, inactivated state block, inactivation step −35 mV 10 sec, third set of compounds, read-out: P2 (IC50, inactivated state block).
Setting [7] is: P1 (IC50, resting state block), P1 measurement, resting state block, holding potential −120 mV, fourth set of compounds.
Where [8] appears, read: P2 (IC50, inactivated state block), P2 measurement, inactivated state block, inactivation step −35 mV 10 sec, fourth set of compounds.
[9] abbreviates: P1 (IC50, resting state block), P1 measurement, resting state block, holding potential −120 mV, second set of compounds.
The mark [10] stands for this setting: P2 (IC50, inactivated state block), P2 measurement, inactivated state block, inactivation step −35 mV 10 sec, second set of compounds.

Where two headings read alike, the source gives them in different places.

T1 sequence (Q9Y5Y9 whole entry): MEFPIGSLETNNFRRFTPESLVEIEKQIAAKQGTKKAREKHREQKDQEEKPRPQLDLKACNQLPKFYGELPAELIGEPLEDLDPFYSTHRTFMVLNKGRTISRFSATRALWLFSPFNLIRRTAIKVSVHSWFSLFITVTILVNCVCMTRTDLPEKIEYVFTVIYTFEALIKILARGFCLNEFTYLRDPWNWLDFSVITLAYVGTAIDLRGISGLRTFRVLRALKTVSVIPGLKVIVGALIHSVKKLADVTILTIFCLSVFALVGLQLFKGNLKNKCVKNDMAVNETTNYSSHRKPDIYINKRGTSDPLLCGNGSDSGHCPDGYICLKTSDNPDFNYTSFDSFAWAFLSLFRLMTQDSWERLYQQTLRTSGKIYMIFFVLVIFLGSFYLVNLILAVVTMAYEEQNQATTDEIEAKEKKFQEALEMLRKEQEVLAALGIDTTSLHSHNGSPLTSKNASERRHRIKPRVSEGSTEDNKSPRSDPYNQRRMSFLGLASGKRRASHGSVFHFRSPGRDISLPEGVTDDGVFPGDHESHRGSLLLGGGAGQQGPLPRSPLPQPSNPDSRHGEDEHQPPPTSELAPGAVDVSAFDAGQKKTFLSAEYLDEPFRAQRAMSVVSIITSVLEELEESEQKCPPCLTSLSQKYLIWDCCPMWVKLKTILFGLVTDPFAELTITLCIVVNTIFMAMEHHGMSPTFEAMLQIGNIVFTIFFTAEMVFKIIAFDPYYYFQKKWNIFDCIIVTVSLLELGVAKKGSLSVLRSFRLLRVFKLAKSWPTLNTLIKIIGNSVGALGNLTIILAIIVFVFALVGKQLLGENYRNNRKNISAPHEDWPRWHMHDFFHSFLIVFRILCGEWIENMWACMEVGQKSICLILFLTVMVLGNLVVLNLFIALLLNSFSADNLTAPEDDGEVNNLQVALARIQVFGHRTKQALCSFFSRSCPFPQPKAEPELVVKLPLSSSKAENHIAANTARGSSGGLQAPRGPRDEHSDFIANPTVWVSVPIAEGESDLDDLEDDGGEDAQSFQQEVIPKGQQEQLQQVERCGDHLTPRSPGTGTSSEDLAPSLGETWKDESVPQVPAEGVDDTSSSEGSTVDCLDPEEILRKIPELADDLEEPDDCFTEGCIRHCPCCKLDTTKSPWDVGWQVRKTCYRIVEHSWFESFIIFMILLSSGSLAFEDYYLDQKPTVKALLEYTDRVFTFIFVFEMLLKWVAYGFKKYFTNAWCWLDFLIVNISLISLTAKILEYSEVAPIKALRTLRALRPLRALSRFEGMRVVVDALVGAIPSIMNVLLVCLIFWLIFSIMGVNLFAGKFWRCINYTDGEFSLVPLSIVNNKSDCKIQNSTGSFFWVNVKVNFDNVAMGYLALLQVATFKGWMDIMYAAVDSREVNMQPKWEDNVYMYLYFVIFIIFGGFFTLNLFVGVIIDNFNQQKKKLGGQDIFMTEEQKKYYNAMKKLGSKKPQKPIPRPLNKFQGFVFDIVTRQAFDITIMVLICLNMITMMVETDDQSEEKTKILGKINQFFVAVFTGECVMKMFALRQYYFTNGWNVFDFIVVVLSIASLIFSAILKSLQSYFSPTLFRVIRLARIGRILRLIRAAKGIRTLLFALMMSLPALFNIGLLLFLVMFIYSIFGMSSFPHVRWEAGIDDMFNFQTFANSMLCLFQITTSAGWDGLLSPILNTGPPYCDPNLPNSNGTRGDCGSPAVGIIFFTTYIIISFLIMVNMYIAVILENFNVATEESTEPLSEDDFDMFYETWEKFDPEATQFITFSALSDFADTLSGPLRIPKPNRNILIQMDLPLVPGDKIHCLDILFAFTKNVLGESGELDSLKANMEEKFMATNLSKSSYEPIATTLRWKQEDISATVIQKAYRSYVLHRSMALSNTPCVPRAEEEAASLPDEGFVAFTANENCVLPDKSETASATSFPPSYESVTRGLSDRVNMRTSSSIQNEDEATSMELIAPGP
T1 sequence (Q9NY72 23-215 partner): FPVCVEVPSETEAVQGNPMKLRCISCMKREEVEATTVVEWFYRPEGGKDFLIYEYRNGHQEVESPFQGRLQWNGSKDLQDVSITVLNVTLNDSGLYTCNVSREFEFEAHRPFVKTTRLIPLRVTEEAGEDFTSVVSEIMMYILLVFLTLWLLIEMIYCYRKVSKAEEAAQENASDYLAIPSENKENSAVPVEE

In general, IC50 refers to the point on the concentration scale where inhibition reaches its midpoint. On to `COc1cc(C#N)ccc1Oc1ncc(-c2cnn(C)c2)c(C)c1C(=O)Nc1cccc([S@](C)(=N)=O)c1` [Example 1C, (R)-2-(4-cyano-2-methoxyphenoxy)-4-methyl-5-(1-methyl-1H-pyrazol-4-yl)-N-(3-(S-methylsulfonimidoyl)phenyl)nicotinamide], for which the IC50 runs as follows: under setting [1], 50 to 100 nM; under setting [2], 50 to 100 nM.
Regarding `Cc1nc(F)ccc1Oc1cc(C(F)(F)F)c(Cl)cc1C(=O)NC12CC(C(N)=O)(C1)C2` [Example 63A], the IC50 reads like this: under setting [3], over 200 nM; under setting [4], over 200 nM.
Take `Cc1nc(F)ccc1Oc1cc(C(F)(F)F)ccc1C(=O)Nc1cccc([S@](C)(=N)=O)c1` [Example 2A, (R)-2-((6-fluoro-2-methylpyridin-3-yl)oxy)-N-(3-(S-methylsulfonimidoyl)phenyl)-4-(trifluoromethyl)benzamide]: the IC50 by setting is: under setting [3], 5 to 50 nM; under setting [4], 5 to 50 nM.
On to `C[S@@](=N)(=O)c1cccc(NC(=O)c2c(Oc3ccc(OC(F)(F)F)cc3)cc(C(F)(F)F)c(Cl)c2Oc2ccc(OC(F)(F)F)cc2)c1` [Example 46A], for which the IC50 by setting is: under setting [3], 100 to 200 nM; under setting [4], 100 to 200 nM.
As for `Cc1nc(F)ccc1Oc1cc(C(F)(F)F)c(Cl)cc1C(=O)Nc1cccc([S@@](C)(=O)=NCCN)c1` [Example 14A, (R)—N-(3-(N-(2-aminoethyl)-S-methylsulfonimidoyl)phenyl)-5-chloro-2-((6-fluoro-2-methylpyridin-3-yl)oxy)-4-(trifluoromethyl)benzamide], the half-inhibitory concentration (IC50) was under 5 nM under setting [3] and under 5 nM under setting [4].
For `Cc1nc(F)ccc1Oc1cc(C(F)(F)F)c(Cl)cc1C(=O)Nc1cccc([S@](C)(=N)=O)c1` [Example 1A, (R)-5-chloro-2-((6-fluoro-2-methylpyridin-3-yl)oxy)-N-(3-(S-methylsulfonimidoyl)phenyl)-4-(trifluoromethyl)benzamide], the concentration for half-maximal inhibition (IC50) runs as follows: under setting [3], under 5 nM; under setting [4], under 5 nM.
On to `Cc1nc(F)ccc1Oc1cnc(C(F)(F)F)c(F)c1C(=O)Nc1cccc([S@](C)(=N)=O)c1` [Example 110C], for which the concentration for half-maximal inhibition (IC50) under setting [1] lay in the range of 5 to 50 nM and the IC50 under setting [2] lay within 5 to 50 nM.
Regarding `Cc1nc(F)ccc1Oc1cc(C(F)(F)F)c(Cl)c(C)c1C(=O)NC12CC(C(N)=O)(C1)C2` [Example 53A], the concentration for half-maximal inhibition (IC50) is, setting by setting: under setting [3], over 200 nM; under setting [4], over 200 nM.
For `Cc1nc(F)ccc1Oc1nc2ccccc2cc1C(=O)Nc1cccc([S@](C)(=N)=O)c1` [Example 97C], the IC50 is, setting by setting: under setting [1], 50 to 100 nM; under setting [2], 50 to 100 nM.
For `Cc1nc(F)ccc1Oc1cc(C(F)(F)F)cc(F)c1C(=O)Nc1ccc(C(N)=O)cc1` [Example 36A], the concentration for half-maximal inhibition (IC50) is, setting by setting: under setting [3], 5 to 50 nM; under setting [4], 5 to 50 nM.
`Cc1nc(O)ccc1Oc1ncc(C(F)(F)F)c(C)c1C(=O)Nc1cccc([S@](C)(=N)=O)c1` [Example 117C]: the IC50 by setting is: under setting [1], over 200 nM; under setting [2], over 200 nM.
`Cc1nc(F)ccc1Oc1cc(C(F)(F)F)cc(F)c1C(=O)Nc1ccnc([S@@](C)(=N)=O)c1` [Example 33A]: the 50% inhibitory concentration (IC50) reads like this: under setting [3], 5 to 50 nM; under setting [4], 5 to 50 nM.
For the molecule `Cc1nc(F)ccc1Oc1ncc(C(F)F)c(C)c1C(=O)Nc1ccnc([S@](C)(=N)=O)c1` [Example 115C], the 50% inhibitory concentration (IC50) runs as follows: under setting [5], over 200 nM; under setting [6], over 200 nM.
For `Cc1nc(F)ccc1Oc1nnc(C(F)(F)F)c(C)c1C(=O)Nc1cccc([S@](C)(=N)=O)c1` [Example 9C, (R)-3-((6-fluoro-2-methylpyridin-3-yl)oxy)-5-methyl-N-(3-(S-methylsulfonimidoyl)phenyl)-6-(trifluoromethyl)pyridazine-4-carboxamide], the IC50 under setting [1] lay within 50 to 100 nM and the IC50 under setting [2] lay in the range of 50 to 100 nM.
For the molecule `Cc1nc(F)ccc1Oc1nnc(C(F)(F)F)c(C)c1C(=O)Nc1cccc([S@@](C)(=O)=NC(=O)CN2CC(F)(F)C2)c1` [Example 28D, (R)—N-(3-(N-(2-(3,3-difluoroazetidin-1-yl)acetyl)-S-methylsulfonimidoyl)phenyl)-3-((6-fluoro-2-methylpyridin-3-yl)oxy)-5-methyl-6-(trifluoromethyl)pyridazine-4-carboxamide], the IC50 under setting [7] is under 5 nM and the IC50 under setting [8] was under 5 nM.
Turning to `CNCC(=O)N=[S@](C)(=O)c1cccc(NC(=O)c2ccc(C(F)(F)F)cc2Oc2ccc(F)nc2C)c1` [Example 10B, (R)-2-((6-fluoro-2-methylpyridin-3-yl)oxy)-N-(3-(S-methyl-N-(methylglycyl)sulfonimidoyl)phenyl)-4-(trifluoromethyl)benzamide], the IC50 lay within 5 to 50 nM under setting [9] and 5 to 50 nM under setting [10].
For `COc1c(Oc2cc(C(F)(F)F)nnc2C(=O)Nc2cccc([S+](C)[O-])c2)ccc(F)c1F` (stereo not shown) [Example 30C, 4-(3,4-difluoro-2-methoxyphenoxy)-N-(3-(methylsulfinyl)phenyl)-6-(trifluoromethyl)pyridazine-3-carboxamide], the 50% inhibitory concentration (IC50) is, setting by setting: under setting [1], over 200 nM; under setting [2], over 200 nM.
Consider `Cc1nc(F)ccc1Oc1ccc(C(F)(F)F)c(C)c1C(=O)Nc1cccc([S@@](C)(=O)=NC(=O)[C@@H](C)N)c1` [Example 24B], for which the IC50 under setting [9] is under 5 nM and the IC50 under setting [10] was under 5 nM.
`Cc1nc(F)ccc1Oc1ccc(C(F)(F)F)c(F)c1C(=O)Nc1cccc([S@@](C)(=O)=NC(=O)[C@@H](C)N)c1` [Example 15B, N-(3-((R)—N-(D-alanyl)-S-methylsulfonimidoyl)phenyl)-2-fluoro-6-((6-fluoro-2-methylpyridin-3-yl)oxy)-3-(trifluoromethyl)benzamide]: the concentration for half-maximal inhibition (IC50) is under 5 nM under setting [9] and under 5 nM under setting [10].
For `Cc1nc(F)ccc1Oc1ncc(C(F)(F)F)c(C)c1C(=O)Nc1cccc(S(C)(=O)=NCC2(N)CC2)c1` (stereo not shown) [Example 92C], the IC50 under setting [5] is under 5 nM and the 50% inhibitory concentration (IC50) under setting [6] is under 5 nM.
`Cc1nc(F)ccc1Oc1cc(C(F)(F)F)c(Cl)c(F)c1C(=O)Nc1cccc([S@](C)(=N)=O)c1` [Example 43A]: the concentration for half-maximal inhibition (IC50) runs as follows: under setting [3], under 5 nM; under setting [4], under 5 nM.
Take `Cc1nc(F)ccc1Oc1ncc(C(F)(F)F)c(C)c1C(=O)Nc1cccc([S@@](C)(=O)=NC(=O)C2CNC2)c1` [Example 4D, (R)—N-(3-(N-(azetidine-3-carbonyl)-S-methylsulfonimidoyl)phenyl)-2-((6-fluoro-2-methylpyridin-3-yl)oxy)-4-methyl-5-(trifluoromethyl)nicotinamide]: the 50% inhibitory concentration (IC50) under setting [7] was under 5 nM and the half-inhibitory concentration (IC50) under setting [8] is under 5 nM.
With `C[S@@](=N)(=O)c1cc(NC(=O)c2c(F)cc(C(F)(F)F)cc2Oc2ccc(OC(F)(F)F)cc2)ccn1` [Example 44A], the half-maximal inhibitory concentration (IC50) reads like this: under setting [3], under 5 nM; under setting [4], under 5 nM.
Turning to `Cc1nc(F)ccc1Oc1cc(C2CC2)c(C(F)(F)F)c(C)c1C(=O)Nc1ccnc([S@@](C)(=N)=O)c1` [Example 38A], the concentration for half-maximal inhibition (IC50) is under 5 nM under setting [3] and under 5 nM under setting [4].
For `CNCC(=O)N=[S@](C)(=O)c1cccc(NC(=O)c2c(Oc3ccc(F)nc3C)ccc(C(F)(F)F)c2C)c1` [Example 25B], the half-maximal inhibitory concentration (IC50) under setting [9] is under 5 nM and the IC50 under setting [10] is under 5 nM.
In the case of `Cc1nc(F)ccc1Oc1nnc(C(F)(F)F)c(C)c1C(=O)Nc1cccc([S@@](C)(=O)=NC(=O)[C@@H]2CCCN2)c1` [Example 26D, N-(3-((R)—N-(L-prolyl)-S-methylsulfonimidoyl)phenyl)-3-((6-fluoro-2-methylpyridin-3-yl)oxy)-5-methyl-6-(trifluoromethyl)pyridazine-4-carboxamide], the concentration for half-maximal inhibition (IC50) reads like this: under setting [7], under 5 nM; under setting [8], under 5 nM.
Turning to `Cc1nc(F)ccc1Oc1ncc(C(F)(F)F)c(C)c1C(=O)Nc1ccnc(C(N)=O)c1` [Example 120C], the half-maximal inhibitory concentration (IC50) under setting [5] was 5 to 50 nM and the IC50 under setting [6] is 5 to 50 nM.
Regarding `Cc1nc(F)ccc1Oc1ccc(C(F)(F)F)c(C)c1C(=O)Nc1cccc([S@@](C)(=O)=NC(=O)CN)c1` [Example 26B], the IC50 is under 5 nM under setting [9] and under 5 nM under setting [10].
`Cc1nc(F)ccc1Oc1nnc(C(F)(F)F)c(C)c1C(=O)Nc1cccc([S@@](C)(=O)=NC(=O)CO)c1` [Example 20D, (R)-3-((6-fluoro-2-methylpyridin-3-yl)oxy)-N-(3-(N-(2-hydroxyacetyl)-S-methylsulfonimidoyl)phenyl)-5-methyl-6-(trifluoromethyl)pyridazine-4-carboxamide] had an IC50 under setting [7] of 5 to 50 nM and an IC50 under setting [8] of 5 to 50 nM.
As to `Cc1nc(F)ccc1Oc1ncc(C(F)(F)F)c(C)c1C(=O)Nc1ccnc([S@@](C)(=N)=O)c1` (single isomer, unassigned) [Example 10C], the IC50 is, setting by setting: under setting [1], 5 to 50 nM; under setting [2], 5 to 50 nM.
`COc1cc(C#N)ccc1Oc1ncc(-c2ccc(C)cc2)c(C)c1C(=O)Nc1cccc([S@](C)(=N)=O)c1` [Example 21C, (R)-2-(4-cyano-2-methoxyphenoxy)-4-methyl-N-(3-(S-methylsulfonimidoyl)phenyl)-5-(p-tolyl)nicotinamide] returned an IC50 under setting [1] of under 5 nM and an IC50 under setting [2] of under 5 nM.
With `Cc1nc(F)ccc1Oc1ncc(C(F)(F)F)c(C)c1C(=O)Nc1ccc(F)c([S@@](C)(=N)=O)c1` (single isomer, unassigned) [Example 14C], the 50% inhibitory concentration (IC50) was 5 to 50 nM under setting [1] and 5 to 50 nM under setting [2].

For the origin of these results see patent US20260356804A1, “SODIUM CHANNEL BLOCKING COMPOUNDS, DERIVATIVES THEREOF, AND METHODS OF THEIR USE” (LATIGO BIOTHERAPEUTICS, INC., priority 2022, published 2026).
